Data set [1] deals with Human acetylcholinesterase (AChE; EC 3.1.1.7) (Homo sapiens, UniProt P22303). The experiment in a line: modified Ellman assay with purified AChE, Lineweaver-Burk kinetics. The class given is biochemical. For orientation: Ellman's reagent forms a yellow product with free thiols.
Substrate in data set [2]: CC(=O)SCC[N+](C)(C)C
Description: Km from modified Ellman assay, Lineweaver-Burk (enzyme only). The class given is biochemical, Homo sapiens. To be noted: active site (substrate). From the text:
Km from modified Ellman assay, Lineweaver-Burk (enzyme only) on Human acetylcholinesterase (AChE; EC 3.1.1.7) | The reaction system contained acetylthiocholine (ACth) as the substrate

Like-named read-outs stand apart in the source and are kept apart here.

For the molecule `CN(CC(=O)O)C(=N)N` [CR, Creatine], in data set [1] (read-out: Creatine 0.15 mM), the Ki came to 199 ± 5.21 µM.

On to `NCCS(=O)(=O)O` [TA, Taurine], for which the Ki in data set [1] (read-out: Taurine 0.15 mM) came out at 274 ± 5.94 µM.

B1: Human acetylcholinesterase (AChE; EC 3.1.1.7) (Homo sapiens) (protein)
chain: EGREDAELLVTVRGGRLRGIRLKTPGGPVSAFLGIPFAEPPMGPRRFLPPEPKQPWSGVVDATTFQSVCYQYVDTLYPGFEGTEMWNPNRELSEDCLYLNVWTPYPRPTSPTPVLVWIYGGGFYSGASSLDVYDGRFLVQAERTVLVSMNYRVGAFGFLALPGSREAPGNVGLLDQRLALQWVQENVAAFGGDPTSVTLFGESAGAASVGMHLLSPPSRGLFHRAVLQSGAPNGPWATVGMGEARRRATQLAHLVGCPPGGTGGNDTELVACLRTRPAQVLVNHEWHVLPQESVFRFSFVPVVDGDFLSDTPEALINAGDFHGLQVLVGVVKDEGSYFLVYGAPGFSKDNESLISRAEFLAGVRVGVPQVSDLAAEAVVLHYTDWLHPEDPARLREALSDVVGDHNVVCPVAQLAGRLAAQGARVYAYVFEHRASTLSWPLWMGVPHGYEIEFIFGIPLDPSRNYTAEEKIFAQRLMRYWANFARTGDPNEPRDPKAPQWPPYTAGAQQYVSLDLRPLEVRRGLRAQACAFWNRFLPKLLSATDTLDEAERQWKAEFHRWSSYMVHWKNQFDHYSKQDRCSDL
With B1, in data set [2], the Km (in general, the substrate concentration at which the rate is half of its maximum) was determined as 1.73 ± 0.0147 µM and the maximal velocity (Vmax) (in general, the top rate of the reaction or transport when substrate is in excess) is 131 µM/min.

The record behind these values is publication PMC12691779, “Creatine and Taurine as Novel Competitive Inhibitors of Acetylcholinesterase: A Biochemical Basis for Nutritional Modulation of Brain Function” (International Journal of Molecular Sciences, 2025).
